Measurements from the supplement of paper PMC10307832.

Experiments:
Assay in all cases: relative viability (nuclei count vs DMSO), 5 days (fraction); higher = more cells survive
SW 1573 = tested on: SW 1573
Procedure, shortened: (§1)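 The day after seeding in 1536-well plates, lung cancer cell lines were treated by pin tool with a single drug, or with a fixed anchor-drug dose together with five library-drug doses (not always all listed) in √10 steps. After 5 days, a combined fix-and-stain solution (final 0.05% Triton X-100, 1% formaldehyde, 1 ug/ml Hoechst) was added. Nuclei counted on 4× images gave relative viability as treated counts over vehicle counts, reported as the median of duplicate plates.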

ChaGo-K-1 = tested on: ChaGo-K-1
Procedure, shortened: as §1

LOU-NH91 = tested on: LOU-NH91
Procedure, shortened: as §1

NCI-H1666 = tested on: NCI-H1666
Procedure, shortened: as §1

SK-LU-1 = tested on: SK-LU-1
Procedure, shortened: as §1

NCI-H3122 = tested on: NCI-H3122
Procedure, shortened: as §1

RERF-LC-KJ = tested on: RERF-LC-KJ
Procedure, shortened: as §1

NCI-H1563 = tested on: NCI-H1563
Procedure, shortened: as §1

NCI-H2126 = tested on: NCI-H2126
Procedure, shortened: as §1

NCI-H23 = tested on: NCI-H23
Procedure, shortened: as §1

SW 900 = tested on: SW 900
Procedure, shortened: as §1

EMC-BAC-2 = tested on: EMC-BAC-2
Procedure, shortened: as §1

NCI-H2405 = tested on: NCI-H2405
Procedure, shortened: as §1

NCI-H322M = tested on: NCI-H322M
Procedure, shortened: as §1

HCC-827 = tested on: HCC-827
Procedure, shortened: as §1

NCI-H1975 = tested on: NCI-H1975
Procedure, shortened: as §1

HCC-78 = tested on: HCC-78
Procedure, shortened: as §1

LXF-289 = tested on: LXF-289
Procedure, shortened: as §1

EPLC-272H = tested on: EPLC-272H
Procedure, shortened: as §1

LK-2 = tested on: LK-2
Procedure, shortened: as §1

NCI-H2085 = tested on: NCI-H2085
Procedure, shortened: as §1

LU99A = tested on: LU99A
Procedure, shortened: as §1

LCLC-103H = tested on: LCLC-103H
Procedure, shortened: as §1

O=C(O)c1ccc(-c2c[nH]c3ncc(-c4ccccc4)cc23)cc1C1CCCC1 + COc1cc2c(Oc3ccc(NC(=O)C4(C(=O)Nc5ccc(F)cc5)CC4)cc3F)ccnc2cc1OCCCN1CCOCC1 [Foretinib] (partner 0.25 µM)
relative viability (SW 1573; first compound 0.04 µM): 0.977
relative viability (SW 1573; first compound 0.1265 µM): 0.901
relative viability (SW 1573; first compound 0.4 µM): 0.902
relative viability (SW 1573; first compound 1.265 µM): 0.791
relative viability (ChaGo-K-1; first compound 0.04 µM): 0.995
relative viability (ChaGo-K-1; first compound 0.1265 µM): 0.928
relative viability (ChaGo-K-1; first compound 0.4 µM): 0.833
relative viability (ChaGo-K-1; first compound 1.265 µM): 0.863
relative viability (LOU-NH91; first compound 0.04 µM): 0.892
relative viability (LOU-NH91; first compound 0.1265 µM): 1.03
relative viability (LOU-NH91; first compound 0.4 µM): 0.927
relative viability (LOU-NH91; first compound 1.265 µM): 0.781
relative viability (NCI-H1666; first compound 0.04 µM): 0.961
relative viability (NCI-H1666; first compound 0.1265 µM): 0.959
relative viability (NCI-H1666; first compound 0.4 µM): 0.921
relative viability (NCI-H1666; first compound 1.265 µM): 0.441
relative viability (SK-LU-1; first compound 0.04 µM): 0.782
relative viability (SK-LU-1; first compound 0.1265 µM): 0.875
relative viability (SK-LU-1; first compound 0.4 µM): 0.705
relative viability (SK-LU-1; first compound 1.265 µM): 0.51
relative viability (NCI-H3122; first compound 0.04 µM): 0.968
relative viability (NCI-H3122; first compound 0.1265 µM): 0.913
relative viability (NCI-H3122; first compound 0.4 µM): 0.891
relative viability (NCI-H3122; first compound 1.265 µM): 0.87
relative viability (RERF-LC-KJ; first compound 0.04 µM): 0.86
relative viability (RERF-LC-KJ; first compound 0.1265 µM): 0.865
relative viability (RERF-LC-KJ; first compound 0.4 µM): 0.933
relative viability (RERF-LC-KJ; first compound 1.265 µM): 0.837
relative viability (NCI-H1563; first compound 0.04 µM): 0.924
relative viability (NCI-H1563; first compound 0.1265 µM): 1.03
relative viability (NCI-H1563; first compound 0.4 µM): 0.853
relative viability (NCI-H1563; first compound 1.265 µM): 0.97
relative viability (NCI-H2126; first compound 0.04 µM): 1.25
relative viability (NCI-H2126; first compound 0.1265 µM): 1.12
relative viability (NCI-H2126; first compound 0.4 µM): 1.16
relative viability (NCI-H2126; first compound 1.265 µM): 1.2
relative viability (NCI-H23; first compound 0.04 µM): 1.1
relative viability (NCI-H23; first compound 0.1265 µM): 1
relative viability (NCI-H23; first compound 0.4 µM): 0.939
relative viability (NCI-H23; first compound 1.265 µM): 0.616
relative viability (SW 900; first compound 0.04 µM): 0.921
relative viability (SW 900; first compound 0.1265 µM): 0.839
relative viability (SW 900; first compound 0.4 µM): 0.896
relative viability (SW 900; first compound 1.265 µM): 0.824
relative viability (EMC-BAC-2; first compound 0.04 µM): 0.997
relative viability (EMC-BAC-2; first compound 0.1265 µM): 1.08
relative viability (EMC-BAC-2; first compound 0.4 µM): 0.97
relative viability (EMC-BAC-2; first compound 1.265 µM): 0.857
relative viability (NCI-H2405; first compound 0.04 µM): 1.05
relative viability (NCI-H2405; first compound 0.1265 µM): 1.1
relative viability (NCI-H2405; first compound 0.4 µM): 1.02
relative viability (NCI-H2405; first compound 1.265 µM): 0.747
relative viability (NCI-H322M; first compound 0.04 µM): 1.02
relative viability (NCI-H322M; first compound 0.1265 µM): 1.03
relative viability (NCI-H322M; first compound 0.4 µM): 0.993
relative viability (NCI-H322M; first compound 1.265 µM): 0.824
relative viability (HCC-827; first compound 0.04 µM): 0.914
relative viability (HCC-827; first compound 0.1265 µM): 1.08
relative viability (HCC-827; first compound 0.4 µM): 0.957
relative viability (HCC-827; first compound 1.265 µM): 0.543
relative viability (NCI-H1975; first compound 0.04 µM): 0.964
relative viability (NCI-H1975; first compound 0.1265 µM): 0.941
relative viability (NCI-H1975; first compound 0.4 µM): 0.985
relative viability (NCI-H1975; first compound 1.265 µM): 0.883
relative viability (HCC-78; first compound 0.1265 µM): 0.584
relative viability (HCC-78; first compound 0.4 µM): 0.524
relative viability (HCC-78; first compound 1.265 µM): 0.531
relative viability (LXF-289; first compound 0.04 µM): 0.972
relative viability (LXF-289; first compound 0.1265 µM): 0.939
relative viability (LXF-289; first compound 0.4 µM): 0.867
relative viability (LXF-289; first compound 1.265 µM): 0.543
relative viability (EPLC-272H; first compound 0.04 µM): 0.694
relative viability (EPLC-272H; first compound 0.1265 µM): 0.752
relative viability (EPLC-272H; first compound 0.4 µM): 0.585
relative viability (EPLC-272H; first compound 1.265 µM): 0.187
relative viability (LK-2; first compound 0.04 µM): 1.33
relative viability (LK-2; first compound 0.1265 µM): 1.14
relative viability (LK-2; first compound 0.4 µM): 1.13
relative viability (LK-2; first compound 1.265 µM): 0.969
relative viability (NCI-H2085; first compound 0.04 µM): 1.14
relative viability (NCI-H2085; first compound 0.1265 µM): 0.988
relative viability (NCI-H2085; first compound 0.4 µM): 0.845
relative viability (NCI-H2085; first compound 1.265 µM): 0.56
relative viability (LU99A; first compound 0.04 µM): 0.803
relative viability (LU99A; first compound 0.1265 µM): 0.783
relative viability (LU99A; first compound 0.4 µM): 0.729
relative viability (LU99A; first compound 1.265 µM): 0.677
relative viability (LCLC-103H; first compound 0.04 µM): 0.702
relative viability (LCLC-103H; first compound 0.1265 µM): 0.793
relative viability (LCLC-103H; first compound 0.4 µM): 0.613
relative viability (LCLC-103H; first compound 1.265 µM): 0.507
